Results published in paper PMC4076210, “Discovery of Novel AKT Inhibitors with Enhanced Anti-Tumor Effects in Combination with the MEK Inhibitor” (PLoS ONE, 2014).
Read-outs that look alike come from different tables or passages of the source.

Columns and labels:
Assay in all cases: Kinase panel
Type in all cases: biochemical
Ret(h) = target: T1, Ret(h) (Homo sapiens, UniProt P07949)
T1 construct: purchased Millipore KinaseProfiler

ULK3(h) = target: T2, ULK3(h) (Homo sapiens, UniProt Q6PHR2)
T2 construct: purchased Millipore KinaseProfiler
T2 sequence (Q6PHR2 1-472): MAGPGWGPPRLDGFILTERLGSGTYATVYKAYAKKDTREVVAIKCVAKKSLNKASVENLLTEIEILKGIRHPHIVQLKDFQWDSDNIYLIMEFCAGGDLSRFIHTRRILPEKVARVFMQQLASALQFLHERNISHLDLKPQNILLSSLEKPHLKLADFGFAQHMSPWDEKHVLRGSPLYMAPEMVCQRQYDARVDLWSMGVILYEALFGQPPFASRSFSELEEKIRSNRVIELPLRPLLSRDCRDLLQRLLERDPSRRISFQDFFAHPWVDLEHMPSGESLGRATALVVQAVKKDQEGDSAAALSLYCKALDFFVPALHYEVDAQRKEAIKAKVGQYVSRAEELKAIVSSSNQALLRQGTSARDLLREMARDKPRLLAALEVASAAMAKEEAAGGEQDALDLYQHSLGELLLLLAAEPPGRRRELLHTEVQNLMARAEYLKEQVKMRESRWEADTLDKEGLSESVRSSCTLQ

TAO3(h) = target: T3, TAO3(h) (Homo sapiens, UniProt Q9H2K8)
T3 construct: purchased Millipore KinaseProfiler
T3 sequence (Q9H2K8 1-898): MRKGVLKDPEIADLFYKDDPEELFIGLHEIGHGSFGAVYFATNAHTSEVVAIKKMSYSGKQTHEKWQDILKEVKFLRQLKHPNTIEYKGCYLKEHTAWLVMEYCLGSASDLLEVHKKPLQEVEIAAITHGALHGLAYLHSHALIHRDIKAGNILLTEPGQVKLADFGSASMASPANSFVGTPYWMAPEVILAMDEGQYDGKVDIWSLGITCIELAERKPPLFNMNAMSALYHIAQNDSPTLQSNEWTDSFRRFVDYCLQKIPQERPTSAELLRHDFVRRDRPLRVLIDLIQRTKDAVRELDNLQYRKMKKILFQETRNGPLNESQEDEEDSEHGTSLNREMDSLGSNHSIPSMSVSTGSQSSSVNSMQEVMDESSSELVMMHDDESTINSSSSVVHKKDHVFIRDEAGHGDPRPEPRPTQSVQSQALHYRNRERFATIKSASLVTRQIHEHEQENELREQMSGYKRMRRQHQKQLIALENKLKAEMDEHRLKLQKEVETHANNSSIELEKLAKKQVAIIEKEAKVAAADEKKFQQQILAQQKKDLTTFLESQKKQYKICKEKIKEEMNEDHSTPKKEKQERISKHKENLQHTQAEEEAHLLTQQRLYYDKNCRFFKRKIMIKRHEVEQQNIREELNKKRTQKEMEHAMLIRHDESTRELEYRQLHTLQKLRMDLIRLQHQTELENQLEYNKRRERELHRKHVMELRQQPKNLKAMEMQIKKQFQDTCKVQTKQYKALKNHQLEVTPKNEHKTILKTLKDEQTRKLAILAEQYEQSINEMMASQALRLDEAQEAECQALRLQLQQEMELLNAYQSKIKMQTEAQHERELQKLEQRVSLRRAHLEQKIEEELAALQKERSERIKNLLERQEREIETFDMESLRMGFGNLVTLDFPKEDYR

Fms(h) = target: T4, Fms(h) (Homo sapiens, UniProt P07333)
T4 construct: purchased Millipore KinaseProfiler

Plk1(h) = target: T5, Plk1(h) (Homo sapiens, UniProt P53350)
T5 construct: purchased Millipore KinaseProfiler

TSSK1(h) = target: T6, TSSK1(h) (Homo sapiens, UniProt Q9BXA7)
T6 construct: purchased Millipore KinaseProfiler
T6 sequence (Q9BXA7 1-367): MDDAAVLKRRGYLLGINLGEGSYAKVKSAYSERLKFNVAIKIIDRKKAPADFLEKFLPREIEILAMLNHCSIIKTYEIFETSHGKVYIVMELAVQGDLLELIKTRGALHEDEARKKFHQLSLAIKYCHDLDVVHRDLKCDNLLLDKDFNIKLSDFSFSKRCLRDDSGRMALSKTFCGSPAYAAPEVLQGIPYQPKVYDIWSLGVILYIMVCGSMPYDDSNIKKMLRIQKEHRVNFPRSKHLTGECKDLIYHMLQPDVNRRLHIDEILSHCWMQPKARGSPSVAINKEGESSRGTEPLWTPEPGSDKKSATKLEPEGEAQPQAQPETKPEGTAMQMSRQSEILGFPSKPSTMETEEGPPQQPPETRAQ

PKG1β(h) = target: T7, PKG1β(h) (Homo sapiens, UniProt Q13976)
T7 construct: purchased Millipore KinaseProfiler
T7 sequence (Q13976 1-686 isoform Q13976-2): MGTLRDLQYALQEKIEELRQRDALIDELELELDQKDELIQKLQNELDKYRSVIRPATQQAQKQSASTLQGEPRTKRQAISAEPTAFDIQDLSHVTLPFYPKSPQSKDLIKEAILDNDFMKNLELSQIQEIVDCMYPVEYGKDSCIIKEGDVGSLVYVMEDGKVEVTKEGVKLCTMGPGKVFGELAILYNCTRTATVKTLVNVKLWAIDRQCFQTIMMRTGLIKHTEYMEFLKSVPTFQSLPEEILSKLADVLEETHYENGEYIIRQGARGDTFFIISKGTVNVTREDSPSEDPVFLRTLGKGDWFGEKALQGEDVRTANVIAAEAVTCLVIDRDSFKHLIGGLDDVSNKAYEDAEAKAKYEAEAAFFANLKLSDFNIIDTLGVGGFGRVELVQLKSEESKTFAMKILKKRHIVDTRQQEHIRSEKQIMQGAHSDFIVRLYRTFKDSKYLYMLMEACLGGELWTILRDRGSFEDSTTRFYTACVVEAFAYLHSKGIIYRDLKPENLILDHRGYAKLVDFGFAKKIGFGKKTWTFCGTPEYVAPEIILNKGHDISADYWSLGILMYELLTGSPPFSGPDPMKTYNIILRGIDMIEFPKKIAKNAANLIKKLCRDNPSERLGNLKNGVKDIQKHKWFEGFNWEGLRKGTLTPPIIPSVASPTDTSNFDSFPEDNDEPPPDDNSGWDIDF

CDK5/p25(h) = target: T8, CDK5/p25(h) (Homo sapiens, UniProt Q00535)
T8 construct: purchased Millipore KinaseProfiler

Pim-3(h) = target: T9, Pim-3(h) (Homo sapiens, UniProt Q86V86)
T9 construct: purchased Millipore KinaseProfiler

PAK2(h) = target: T10, PAK2(h) (Homo sapiens, UniProt Q13177)
T10 construct: purchased Millipore KinaseProfiler
T10 sequence (Q13177 whole entry): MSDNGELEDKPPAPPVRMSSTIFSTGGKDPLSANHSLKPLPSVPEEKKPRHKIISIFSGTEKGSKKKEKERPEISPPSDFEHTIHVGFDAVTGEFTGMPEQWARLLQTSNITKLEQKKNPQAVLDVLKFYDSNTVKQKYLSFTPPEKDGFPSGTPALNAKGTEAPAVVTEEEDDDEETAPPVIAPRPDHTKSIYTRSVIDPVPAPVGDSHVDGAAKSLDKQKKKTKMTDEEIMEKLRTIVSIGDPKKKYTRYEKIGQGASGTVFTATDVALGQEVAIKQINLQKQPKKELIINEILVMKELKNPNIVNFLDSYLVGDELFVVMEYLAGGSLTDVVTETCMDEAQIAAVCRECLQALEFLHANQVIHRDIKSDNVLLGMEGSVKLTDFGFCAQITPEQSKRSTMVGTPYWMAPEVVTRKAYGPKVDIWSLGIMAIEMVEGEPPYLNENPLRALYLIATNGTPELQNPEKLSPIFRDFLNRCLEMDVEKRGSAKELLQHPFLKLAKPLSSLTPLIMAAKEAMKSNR

T4 sequence (P07333 20-972): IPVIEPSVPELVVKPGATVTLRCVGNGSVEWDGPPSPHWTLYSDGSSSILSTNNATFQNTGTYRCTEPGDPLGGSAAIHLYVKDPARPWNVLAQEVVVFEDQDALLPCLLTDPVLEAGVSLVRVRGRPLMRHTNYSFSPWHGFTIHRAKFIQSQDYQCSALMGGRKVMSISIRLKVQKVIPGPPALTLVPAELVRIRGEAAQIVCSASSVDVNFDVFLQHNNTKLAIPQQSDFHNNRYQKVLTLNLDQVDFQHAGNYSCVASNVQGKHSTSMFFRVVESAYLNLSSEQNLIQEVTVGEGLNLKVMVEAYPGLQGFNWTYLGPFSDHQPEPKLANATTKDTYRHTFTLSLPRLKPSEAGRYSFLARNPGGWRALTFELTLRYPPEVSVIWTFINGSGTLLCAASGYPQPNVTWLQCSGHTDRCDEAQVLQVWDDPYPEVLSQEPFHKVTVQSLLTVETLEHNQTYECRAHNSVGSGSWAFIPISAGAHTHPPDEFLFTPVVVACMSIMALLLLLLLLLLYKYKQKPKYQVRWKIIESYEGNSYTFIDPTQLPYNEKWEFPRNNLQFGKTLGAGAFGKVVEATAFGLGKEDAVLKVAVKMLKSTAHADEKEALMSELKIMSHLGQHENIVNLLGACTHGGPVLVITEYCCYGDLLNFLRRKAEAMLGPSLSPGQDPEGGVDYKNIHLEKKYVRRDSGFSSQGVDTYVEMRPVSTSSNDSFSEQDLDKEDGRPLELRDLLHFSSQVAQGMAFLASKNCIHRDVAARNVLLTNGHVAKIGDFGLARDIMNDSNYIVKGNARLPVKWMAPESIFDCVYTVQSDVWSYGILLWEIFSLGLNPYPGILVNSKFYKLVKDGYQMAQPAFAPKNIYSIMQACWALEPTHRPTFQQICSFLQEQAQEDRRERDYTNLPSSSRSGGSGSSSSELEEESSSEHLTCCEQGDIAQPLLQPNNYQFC
T1 sequence (P07949 29-1114): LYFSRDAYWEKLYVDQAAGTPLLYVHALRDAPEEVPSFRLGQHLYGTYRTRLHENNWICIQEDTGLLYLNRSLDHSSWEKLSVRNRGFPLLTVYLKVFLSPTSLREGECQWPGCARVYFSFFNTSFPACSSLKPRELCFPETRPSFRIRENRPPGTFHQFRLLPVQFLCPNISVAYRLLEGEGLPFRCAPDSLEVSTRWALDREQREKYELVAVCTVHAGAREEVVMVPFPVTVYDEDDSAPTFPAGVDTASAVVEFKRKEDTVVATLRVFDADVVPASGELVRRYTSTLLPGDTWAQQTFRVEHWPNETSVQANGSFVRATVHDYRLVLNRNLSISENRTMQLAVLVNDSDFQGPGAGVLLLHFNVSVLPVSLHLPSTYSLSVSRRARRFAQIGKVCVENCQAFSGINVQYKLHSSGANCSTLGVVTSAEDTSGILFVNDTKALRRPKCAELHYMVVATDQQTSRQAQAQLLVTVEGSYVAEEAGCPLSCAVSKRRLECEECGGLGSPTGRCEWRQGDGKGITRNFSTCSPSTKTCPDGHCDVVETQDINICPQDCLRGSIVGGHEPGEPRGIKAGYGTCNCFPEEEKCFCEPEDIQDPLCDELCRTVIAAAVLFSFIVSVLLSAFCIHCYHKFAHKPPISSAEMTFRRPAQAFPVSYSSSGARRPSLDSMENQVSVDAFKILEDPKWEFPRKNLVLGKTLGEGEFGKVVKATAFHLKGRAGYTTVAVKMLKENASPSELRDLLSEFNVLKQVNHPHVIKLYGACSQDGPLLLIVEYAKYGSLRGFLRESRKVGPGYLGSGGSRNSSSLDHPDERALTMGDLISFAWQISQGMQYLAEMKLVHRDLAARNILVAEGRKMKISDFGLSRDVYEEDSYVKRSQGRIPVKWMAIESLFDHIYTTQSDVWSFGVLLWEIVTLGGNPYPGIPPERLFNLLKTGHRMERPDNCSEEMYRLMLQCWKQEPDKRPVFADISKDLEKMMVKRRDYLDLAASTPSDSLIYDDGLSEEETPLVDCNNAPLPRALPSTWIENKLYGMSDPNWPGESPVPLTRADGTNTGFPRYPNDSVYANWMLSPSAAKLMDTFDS
T8 sequence (Q00535 whole entry): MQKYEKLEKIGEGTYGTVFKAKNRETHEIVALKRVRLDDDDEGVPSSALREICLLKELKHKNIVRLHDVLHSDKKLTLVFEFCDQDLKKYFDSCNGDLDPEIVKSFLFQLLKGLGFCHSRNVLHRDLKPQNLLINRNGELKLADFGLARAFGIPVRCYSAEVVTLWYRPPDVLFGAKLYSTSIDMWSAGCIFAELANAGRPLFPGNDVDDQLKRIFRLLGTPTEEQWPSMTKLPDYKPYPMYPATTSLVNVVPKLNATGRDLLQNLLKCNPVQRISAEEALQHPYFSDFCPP
T8 sequence (Q15078 99-307 partner limits assumed): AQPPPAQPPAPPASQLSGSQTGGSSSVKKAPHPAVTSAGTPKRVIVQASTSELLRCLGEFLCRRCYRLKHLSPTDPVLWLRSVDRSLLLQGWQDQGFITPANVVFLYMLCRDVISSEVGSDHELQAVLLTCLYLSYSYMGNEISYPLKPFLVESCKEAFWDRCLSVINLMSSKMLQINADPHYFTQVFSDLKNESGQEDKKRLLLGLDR
T5 sequence (P53350 whole entry): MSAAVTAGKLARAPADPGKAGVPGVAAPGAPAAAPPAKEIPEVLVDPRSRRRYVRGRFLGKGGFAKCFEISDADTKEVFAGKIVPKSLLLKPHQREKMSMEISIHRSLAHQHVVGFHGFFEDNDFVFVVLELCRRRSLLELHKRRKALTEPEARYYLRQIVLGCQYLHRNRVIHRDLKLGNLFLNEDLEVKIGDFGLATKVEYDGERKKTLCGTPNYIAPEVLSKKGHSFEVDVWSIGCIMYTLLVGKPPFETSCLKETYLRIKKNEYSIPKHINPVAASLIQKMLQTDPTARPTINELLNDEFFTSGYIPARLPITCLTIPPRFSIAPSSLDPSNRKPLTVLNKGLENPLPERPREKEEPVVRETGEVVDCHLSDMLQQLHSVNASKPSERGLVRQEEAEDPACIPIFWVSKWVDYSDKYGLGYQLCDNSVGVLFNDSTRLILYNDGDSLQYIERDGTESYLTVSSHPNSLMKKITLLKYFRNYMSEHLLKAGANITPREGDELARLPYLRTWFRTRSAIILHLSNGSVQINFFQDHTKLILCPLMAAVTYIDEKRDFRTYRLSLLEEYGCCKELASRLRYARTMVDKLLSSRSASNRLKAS

Cn1ncc(Cl)c1-c1cc(C(=O)N[C@H](CN)Cc2cccc(F)c2)sc1Cl [GSK2110183]
inhibition at 0.5 µM (Ret(h)): 4% | inhibition at 10 µM (Ret(h)): 14% | inhibition at 0.5 µM (ULK3(h)): 20% | inhibition at 10 µM (ULK3(h)): 72% | inhibition at 0.5 µM (TAO3(h)): -2% | inhibition at 10 µM (TAO3(h)): 24% | inhibition at 0.5 µM (Fms(h)): -1% | inhibition at 10 µM (Fms(h)): 3% | inhibition at 0.5 µM (Plk1(h)): -21% | inhibition at 10 µM (Plk1(h)): -6% | inhibition at 0.5 µM (TSSK1(h)): 16% | inhibition at 10 µM (TSSK1(h)): 84% | inhibition at 0.5 µM (PKG1β(h)): 101% | inhibition at 10 µM (PKG1β(h)): 101% | inhibition at 0.5 µM (CDK5/p25(h)): -4% | inhibition at 10 µM (CDK5/p25(h)): 28% | inhibition at 0.5 µM (Pim-3(h)): -25% | inhibition at 10 µM (Pim-3(h)): -13% | inhibition at 0.5 µM (PAK2(h)): -2% | inhibition at 10 µM (PAK2(h)): 23%

Cn1ncc(Cl)c1-c1cc(C(=O)N[C@H](CN)Cc2ccc(F)c(F)c2)oc1Cl [GSK2141795]
inhibition at 0.5 µM (Ret(h); 0.5 µM, read-out: % Inhibition): -19% | inhibition at 10 µM (Ret(h); 10 µM, read-out: % Inhibition): 31% | inhibition at 0.5 µM (ULK3(h); 0.5 µM, read-out: % Inhibition): 0% | inhibition at 10 µM (ULK3(h); 10 µM, read-out: % Inhibition): 49% | inhibition at 0.5 µM (TAO3(h); 0.5 µM, read-out: % Inhibition): -16% | inhibition at 10 µM (TAO3(h); 10 µM, read-out: % Inhibition): -4% | inhibition at 0.5 µM (Fms(h); 0.5 µM, read-out: % Inhibition): -13% | inhibition at 10 µM (Fms(h); 10 µM, read-out: % Inhibition): 3% | inhibition at 0.5 µM (Plk1(h); 0.5 µM, read-out: % Inhibition): -34% | inhibition at 10 µM (Plk1(h); 10 µM, read-out: % Inhibition): 8% | inhibition at 0.5 µM (TSSK1(h); 0.5 µM, read-out: % Inhibition): 21% | inhibition at 10 µM (TSSK1(h); 10 µM, read-out: % Inhibition): 83% | inhibition at 0.5 µM (PKG1β(h); 0.5 µM, read-out: % Inhibition): 101% | inhibition at 10 µM (PKG1β(h); 10 µM, read-out: % Inhibition): 100% | inhibition at 0.5 µM (CDK5/p25(h); 0.5 µM, read-out: % Inhibition): -8% | inhibition at 10 µM (CDK5/p25(h); 10 µM, read-out: % Inhibition): 37% | inhibition at 0.5 µM (Pim-3(h); 0.5 µM, read-out: % Inhibition): -10% | inhibition at 10 µM (Pim-3(h); 10 µM, read-out: % Inhibition): -4% | inhibition at 0.5 µM (PAK2(h); 0.5 µM, read-out: % Inhibition): 22% | inhibition at 10 µM (PAK2(h); 10 µM, read-out: % Inhibition): 25%
